Each structure is given as a SMILES string. Counter-ions that a name gives are not always drawn.

Data set [1] has as its system capsaicin-induced mechanical allodynia. As to the kind of experiment: Capsaicin-induced mechanical allodynia rat model. The settings on record: sc, male Sprague-Dawley rats, single subcutaneous 10 mg/kg dose on Day 7, measurement 1 hour post dose, mean of eight animals. The class given is in vivo. The method, then: On Day 0, male Sprague-Dawley rats (about 150 g each) in the dark cycle were placed in suspended wire-bottom cages and allowed to acclimate for 0.5 hour in a darkened, quiet room. The Day 0 paw withdrawal threshold (PWT) was determined on the left hind paw by Von Frey hair assessment using the Dixon up and down method. After assessment, the plantar muscle of the right hind paw was injected with 100 μL of capsaicin (0.25% weight/volume (w/v) in 10% ethanol, 10% Tween 80, in sterile saline).
On Day 6, the PWT of the left hind paw (contralateral from the injected paw) was determined for each animal. Animals on Day 6 with PWT≦11.7 g were considered allodynic responders and were regrouped so that the animals in each cage had similar mean PWT values.
On Day 7, the responders were dosed subcutaneously with 10 mg of the test compound per kg of rat body weight in vehicle, or were administered vehicle (10 mL/kg) alone. The vehicle was phosphate buffered saline containing 2% CREMOPHOR® EL (BASF). The contralateral (i.e., left hind paw) PWT values were determined at 1 hour after the single dose, with the investigator blinded to the dosing scheme. For each animal, the Day 6 PWT value was subtracted from the Day 7, 1 hour PWT value for the 10 mg/kg doses of test compound to give a delta PWT value (Delta PWT (drug)), which represents the change in PWT due to the 1 hour drug treatment. In the case of vehicle-alone treated animals, the Day 6 PWT value was subtracted from the Day 7, 1 hour PWT for the 10 mL/kg doses of vehicle and the values averaged (mean Delta PWT (vehicle)). In addition, the Day 6 PWT was subtracted from the Day 0 PWT to give the baseline level (Baseline) of allodynia present in each animal. Percent inhibition of allodynia of each animal, normalized for vehicle controls, was determined using the following formula: […]

In data set [2] the target is human norepinephrine transporter (Homo sapiens, UniProt P23975). As to the kind of experiment: Human norepinephrine (hNET) receptor binding, [125I]-RTI-55. To be noted: membranes of HEK-293 cells transfected with human norepinephrine transporter cDNA; 50 pM [125I]-RTI-55; IC50 converted by Cheng-Prusoff. In outline: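 Membranes from HEK-293 cells expressing human NET, incubated 90 min at room temperature with 50 pM [125I]-RTI-55 and compound (10^−5 to 10^−12 M) in Krebs-HEPES pH 7.4. Nonspecific binding defined with 10 μM desipramine; filter-bound counts gave IC50, converted to Ki by Cheng-Prusoff.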
human norepinephrine transporter, sequence (P23975 whole entry): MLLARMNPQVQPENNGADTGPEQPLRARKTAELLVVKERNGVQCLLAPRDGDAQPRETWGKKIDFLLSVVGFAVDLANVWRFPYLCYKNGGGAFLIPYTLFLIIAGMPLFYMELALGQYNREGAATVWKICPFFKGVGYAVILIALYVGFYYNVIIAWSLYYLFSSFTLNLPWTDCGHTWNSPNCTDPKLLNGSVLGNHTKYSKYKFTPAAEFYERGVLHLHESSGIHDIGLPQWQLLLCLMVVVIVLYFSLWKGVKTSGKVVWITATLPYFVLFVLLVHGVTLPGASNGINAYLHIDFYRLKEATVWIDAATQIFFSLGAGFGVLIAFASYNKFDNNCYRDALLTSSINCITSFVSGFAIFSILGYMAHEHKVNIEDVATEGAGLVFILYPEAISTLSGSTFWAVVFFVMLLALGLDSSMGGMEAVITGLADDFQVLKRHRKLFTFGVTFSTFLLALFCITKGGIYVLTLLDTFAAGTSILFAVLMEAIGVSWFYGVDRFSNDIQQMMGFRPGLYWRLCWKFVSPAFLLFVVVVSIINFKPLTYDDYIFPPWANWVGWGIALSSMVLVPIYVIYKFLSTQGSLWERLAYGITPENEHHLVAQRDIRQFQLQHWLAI

Data set [3] has as its target human serotonin transporter (Homo sapiens, UniProt P31645). As to the kind of experiment: Human serotonin (hSERT) receptor binding, [125I]-RTI-55. The settings on record: membranes of HEK-293 cells transfected with human serotonin transporter cDNA, IC50 converted by Cheng-Prusoff. In outline: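 Membranes from HEK-293 cells expressing human SERT were incubated 90 min at room temperature in Krebs-HEPES buffer pH 7.4 with […] [125I]-RTI-55 and compound (10^−5 to 10^−12 M), in duplicate. Nonspecific binding defined with 10 μM citalopram; IC50 converted to Ki by Cheng-Prusoff.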

human serotonin transporter, sequence (P31645 whole entry): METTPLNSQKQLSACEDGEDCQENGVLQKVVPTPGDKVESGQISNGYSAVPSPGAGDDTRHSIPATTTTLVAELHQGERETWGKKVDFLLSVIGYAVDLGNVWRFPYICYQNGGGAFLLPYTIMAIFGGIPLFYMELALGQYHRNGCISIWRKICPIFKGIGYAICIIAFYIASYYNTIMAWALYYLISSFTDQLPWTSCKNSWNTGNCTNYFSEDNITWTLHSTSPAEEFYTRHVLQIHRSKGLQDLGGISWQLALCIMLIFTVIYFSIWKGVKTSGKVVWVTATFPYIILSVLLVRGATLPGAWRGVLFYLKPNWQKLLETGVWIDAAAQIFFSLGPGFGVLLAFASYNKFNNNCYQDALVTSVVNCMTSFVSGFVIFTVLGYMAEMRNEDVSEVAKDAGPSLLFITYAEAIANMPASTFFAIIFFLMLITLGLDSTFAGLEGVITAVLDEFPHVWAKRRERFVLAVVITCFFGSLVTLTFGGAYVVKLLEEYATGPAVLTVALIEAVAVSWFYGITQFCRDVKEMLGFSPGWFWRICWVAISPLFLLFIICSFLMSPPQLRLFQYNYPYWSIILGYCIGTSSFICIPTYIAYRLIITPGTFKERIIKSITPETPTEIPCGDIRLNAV

For `Cc1ccc(Oc2nc(C)ccc2OC[C@H]2CCCNC2)cc1` [Example 8, (S)-2-(4-methyl-phenoxy)-6-methyl-3-(piperidin-3-ylmethoxy)-pyridine fumaric acid], in data set [1], the inhibition in vivo at 10 mg/kg is 22%. The Ki is 10.3 nM in data set [2] and 159 nM in data set [3].
The corresponding values for `COc1cc(Cl)ccc1Oc1nc(C)ccc1OC[C@H]1CCCNC1` [Example 12, (S)-2-(4-chloro-2-methoxy-phenoxy)-6-methyl-3-(piperidin-3-ylmethoxy)-pyridine fumaric acid] are 88%, 8.7 nM and 120 nM.
In data set [1], `Cc1ccc(OC[C@H]2CCCNC2)c(Oc2c(F)cc(F)cc2F)n1` [Example 44, (S)-6-methyl-2-(2,4,6-trifluoro-phenoxy)-3-(piperidin-3-ylmethoxy)-pyridine hydrochloride] registered an inhibition in vivo at 10 mg/kg of 18%. For the same compound, the values for the Ki in data set [2] and in data set [3] were 4.8 nM and 82 nM, respectively.
In data set [1], `COc1ccc(Oc2nc(C)ccc2OC[C@H]2CCCNC2)cc1` [Example 6, (S)-2-(4-methoxy-phenoxy)-6-methyl-3-(piperidin-3-ylmethoxy)-pyridine fumaric acid] showed an inhibition in vivo at 10 mg/kg of 16%. The Ki in data set [2] was 16 nM; in data set [3], 360 nM.
The corresponding values for `Cc1ccc(OC[C@H]2CCCNC2)c(Oc2cc(F)c(F)cc2F)n1` [Example 29, (S)-6-methyl-2-(2,4,5-trifluoro-phenoxy)-3-(piperidin-3-ylmethoxy)-pyridine fumaric acid] are 11%, 5.3 nM and 130 nM.
Consider `Cc1ccccc1Oc1ncccc1OC[C@H]1CCCNC1.O=C(O)/C=C/C(=O)O` [Example 73, (S)-2-(2-methyl-phenoxy)-3-(piperidin-3-ylmethoxy)-pyridine fumaric acid], for which the melting point was 165 to 167 °C (dec.). In data set [2], this compound returned a Ki of 4 nM. Besides, in data set [3], the Ki was over 10000 nM.
The corresponding values for `Cl.c1ccc(Oc2ccccc2OC[C@H]2CCCNC2)cc1` [Example 43, (S)-3-(2-phenoxy-phenoxymethyl)-piperidine hydrochloride] are 134 to 136 °C, 0.7 nM and 2300 nM.
`Cc1ccc(OC[C@H]2CCCNC2)c(Oc2c(F)cc(Cl)cc2F)n1` [Example 45, (S)-2-(4-chloro-2,6-difluoro-phenoxy)-6-methyl-3-(piperidin-3-ylmethoxy)-pyridine hydrochloride]: in data set [1], at 10 mg/kg the inhibition in vivo was 1%. Besides, the results for the Ki in data set [2] and in data set [3] were 8.4 nM and 29 nM, respectively.
`CC(C)Oc1ccccc1Oc1ncccc1OC[C@H]1CCCNC1.O=C(O)/C=C/C(=O)O` [Example 74, (S)-2-(2-isopropoxy-phenoxy)-3-(piperidin-3-ylmethoxy)-pyridine fumaric acid]: the melting point is 129 to 134 °C (dec.). In data set [2], the affinity, expressed as Ki, was 11 nM. The same compound yielded a Ki in data set [3] of over 10000 nM.
The corresponding values for `Cl.c1ccc(OC2CCCCC2)c(OC[C@H]2CCCNC2)c1` [Example 101, (S)-3-(2-cyclohexyloxy-phenoxymethyl)-piperidine hydrochloride] are 149 to 150 °C, 20 nM and over 9700 nM.
The corresponding values for `Fc1ccc(Oc2ncccc2OC[C@@H]2CCCNC2)cc1F.O=C(O)/C=C/C(=O)O` [Example 63, (R)-2-(3,4-difluoro-phenoxy)-3-(piperidin-3-ylmethoxy)-pyridine fumaric acid] are 130 to 131 °C, 140 nM and 803 nM.
Take `Cl.c1ccc(COc2ccccc2OC[C@H]2CCCNC2)cc1` [Example 99, (S)-3-(2-benzyloxy-phenoxymethyl)-piperidine hydrochloride]: the melting point was 137 to 140 °C (dec.). In data set [2], this compound came in with a Ki of 11 nM. The compound also returned a Ki in data set [3] of 4800 nM.
The corresponding values for `O=C(O)/C=C/C(=O)O.c1ccc(COc2ncccc2OC[C@H]2CCCNC2)cc1` [Example 77, (S)-2-benzyloxy-3-(piperidin-3-ylmethoxy)-pyridine fumaric acid] are 165 to 167 °C (dec.), 6100 nM and 7200 nM.
The corresponding values for `O=C(O)/C=C/C(=O)O.c1ccc(CCCOc2ncccc2OC[C@H]2CCCNC2)cc1` [Example 83, (S)-2-(3-phenyl-propoxy)-3-(piperidin-3-ylmethoxy)-pyridine fumaric acid] are 141 to 142 °C (dec.), 210 nM and 10 nM.
Turning to `Cc1ccc(Cl)c(Oc2ncccc2OC[C@H]2CCCNC2)c1.O=C(O)/C=C/C(=O)O` [Example 76, (S)-2-(2-chloro-5-methyl-phenoxy)-3-(piperidin-3-ylmethoxy)-pyridine fumaric acid], the melting point was 183 to 184 °C (dec.). In addition, the affinity in data set [2], expressed as Ki, was 4 nM. The same compound yielded a Ki in data set [3] of 4800 nM.
Take `Clc1cccc(Oc2ncccc2OC[C@H]2CCCNC2)c1.O=C(O)/C=C/C(=O)O` [Example 59, (S)-2-(3-chloro-phenoxy)-3-(piperidin-3-ylmethoxy)-pyridine fumaric acid]: the melting point lay in the range of 128 to 129 °C. In data set [2], the Ki worked out at 4 nM. The Ki in data set [3] turned out to be 6300 nM.
The corresponding values for `CC(C)COc1ccccc1OCC1CCCNC1.Cl` (stereo not drawn) [Example 102, 3-(2-isobutoxy-phenoxymethyl)-piperidine hydrochloride] are 162 °C, 32 nM and 3960 nM.
The corresponding values for `Fc1ccc(Oc2ncccc2OC[C@H]2CCCNC2)cc1F.O=C(O)/C=C/C(=O)O` [Example 60, (S)-2-(3,4-difluoro-phenoxy)-3-(piperidin-3-ylmethoxy)-pyridine fumaric acid] are 148 to 150 °C, 2 nM and 6600 nM.
The corresponding values for `FC(F)(F)Oc1cccc(Oc2ncccc2OC[C@H]2CCCNC2)c1.O=C(O)/C=C/C(=O)O` [Example 70, (S)-3-(piperidin-3-ylmethoxy)-2-(3-trifluoromethoxy-phenoxy)-pyridine fumaric acid] are 144 to 146 °C, 102 nM and 9700 nM.
For `O=C(O)/C=C/C(=O)O.c1ccc(CCOc2ncccc2OC[C@H]2CCCNC2)cc1` [Example 82, (S)-2-phenethyloxy-3-(piperidin-3-ylmethoxy)-pyridine fumaric acid], the melting point was 146 to 148 °C (dec.). In data set [2], this compound yielded a Ki of 210 nM. The same compound gave a Ki in data set [3] of 3700 nM.
The corresponding values for `Fc1cccc(F)c1Oc1ncccc1OC[C@H]1CCCNC1.O=C(O)/C=C/C(=O)O` [Example 72, (S)-2-(2,6-difluoro-phenoxy)-3-(piperidin-3-ylmethoxy)-pyridine fumaric acid] are 182 to 183 °C (dec.), 2 nM and 3300 nM.
The corresponding values for `Cc1cc(Oc2ncccc2OC[C@H]2CCCNC2)ccc1F.O=C(O)/C=C/C(=O)O` [Example 67, (S)-2-(4-fluoro-3-methyl-phenoxy)-3-(piperidin-3-ylmethoxy)-pyridine fumaric acid] are 136 to 138 °C, 6 nM and 3300 nM.

For the origin of these results see patent US20100120858A1, “Piperidine Derivatives” (Pfizer Inc., priority 2006, published 2010).
